Like-named read-outs stand apart in the source and are kept apart here.
Legend:
HCT-116 cells = experiment: Wound-healing assay; type: cell-based, human; details: HCT-116, 1 μM, images at 0, 4, 24 and 48 hours, vs DMSO
Method: HCT-116 cells were seeded in 6 well plate as 10*10^4 cells per ml (2 ml in each well) and incubated overnight at 37° C. and 5% CO2. On the second day, a scratch was created in each well by using a sterile P200 tip, and then the medium was replaced with fresh medium containing either DMSO or 1 μM of compound 4d. Photomicrograph images were taken at different time points (0, 4, 24 and 48 hours) to monitor the wound closure. After that, the cells were washed two times with ice-cold 1×PBS and fixed with ice-cold methanol for 20 min at 4° C. The fixed cells were washed two times with 1×PBS and stained with 0.5% crystal violet for 30 min. The extra stain was washed off by dH2O until no color in the washing is observed. The images were captured by Gx microscopes (GXMGXD202 Inverted Microscope) (10× Eyepiece) after staining with crystal violet. The size of the wound was measured by using ImageJ 1.47v software. […] This confirms the ability of compound 4d to enhance tumor suppressor activities.

Vero-B = experiment: MTT cytotoxicity assay, normal kidney cell line; type: cell-based, African green monkey; details: Chlorocebus sabaeus, Vero B; Table 1; MTT, 48 hrs incubation; read-out: VERO-B (IC50% μM)
Method: (§1) The cytotoxic activity of the compounds was tested against different mammalian cancer cells, prostate carcinoma cells (PC-3), hepatocellular carcinoma (HepG2) and colon cancer cells (HCT-116) and against African green monkey kidney cell line (Vero-B). The cell lines were obtained from American Type Culture Collection (ATCC). The cells were cultivated at 37° C. and 10% CO2 in DMEM (Lonza, 12-604F) medium supplemented with 10% fetal bovine serum (FBS, Lonza, Cat. No. 14-801E), 100 IU/ml penicillin and 100 μg/ml streptomycin (Lonza, 17-602E). Cisplatin (cis-diamineplatinum (II) dichloride) was used as a positive control and was obtained from Sigma then dissolved in 0.9% saline then stored as 8 mM stock solution at −20° C. The synthesized compounds were solubilized in DMSO and stored at −20° C. 0.5% crystal violet was prepared in Methanol and was used to stain the viable cells (Feoktistova, Geserick et al. 2016). Crystal violet binds to proteins and DNA in the adherent and viable cells so the stain is an indicator for the viability of the treated cells. The viability of the cells were quantified by using MTT reagent (3-(4,5-dimethylthiazol-2-yl)-2,5-diphenyl tetrazolium bromide), which measure the activity of mitochondrial dehydrogenase in the viable cells (Slater, Sawyer et al. 1963, Mosmann 1983).
(§2) Cytotoxicity was further assayed as follows. The cells were seeded in 96-well plate as 5*10^4 cells/mL (100 μL/well). A serial dilutions of tested compounds or cisplatin (100, 30, 10, 3.3, 1.1 or 0.37 μM) was added after overnight incubation of the cells at 37° C. and 5% CO2. DMSO was used as a control (0.1%). The cells were incubated for 48 hrs. After that, 15 μl of MTT (5 mg/mL PBS) was added to each well and incubated for another 4 hours. The formazan crystals were solubilized by 100 μL acidified SDS solution (10% SDS/0.01 M HCl). The absorbance was measured after 14 hours of incubation at 37° C. and 5% CO2 at 570 nm by Biotech plate reader. Each experiment was repeated three times and standard deviation was calculated (±). IC50% was calculated as the concentration that cause 50% inhibition for cell growth. The growth of the cells were monitored and the images were acquired by Gx microscopes (GXMGXD202 Inverted Microscope) (10× Eyepiece) after staining with crystal violet.

HCT-116 = experiment: MTT cytotoxicity assay, colon cancer cells; type: cell-based, human; details: for IC50: Homo sapiens, HCT-116, MTT, 48 hrs incubation
Method: as §1, §2

[1] = tested on: p53 in HCT-116 (wt p53) cells; experiment: p53 activation, p53 protein level by flow cytometry; type: cell-based, human; details: for shift in fluorescence (p53 antibody): 48 hours, untreated 23%
Method: The determination of p53 protein level by flow cytometry was applied because it measures the level in a single cell and determines the heterogeneity of expression within a population of cells. HCT-116 (wt p53) cells were seeded at 5*10^4 cells/mL density in a 6-well plate (2 ml/well). The cells were treated with 1 or 2 μM of compound 4d for 48 hrs, and the cells were collected after trypsin enzyme treatment and washed two times with ice-cold 1×PBS. The cells were fixed with 4% paraformaldehyde for fixation and permeabilization, then washed one time with 1× ice-cold PBS and one time with PBS containing 2% FBS. Then an aliquot of the cells was incubated with an anti-p53 antibody for one hour, and then washed two times with PBS. After that, the same cells were stained with PI (propidium iodide). […] In order to confirm the effect of compound 4d on the activation of p53, we incubated the colon cancer cells with 2 μM of compound 4d, and after 24 hours, the cells were stained with the antibody against p53. […] See FIGS. 6B (1 μM treatment with compound 4d for 48 hours; 52.7% shift in fluorescence) and 6C (2 μM treatment with compound 4d for 48 hours; 60.1% shift in fluorescence) compared to FIG. 6A (untreated cancer cells; 23% shift in fluorescence).

In the case of `O=C(/C=C/c1ccc(Cl)cc1Cl)[C@H]1[C@H](c2ccc(Cl)cc2Cl)[C@H]2CSCN2[C@]12C(=O)Nc1ccccc12` [Compound 4d, (3R,6′S,7′R,7a′S)-7′-(2,4-dichlorophenyl)-6′-((E)-3-(2,4-dichlorophenyl)acryloyl)-1′,6′,7′,7a′-tetrahydro-3′H-spiro[indoline-3,5′-pyrrolo[1,2-c]thiazol]-2-one], the wound closure (HCT-116 cells) is reported as “inhibited wound closure”, the IC50 (Vero-B) is reported as 5 µM and the IC50 (HCT-116; read-out: HCT-116 (IC50% μM)) is reported as 1.4 ± 0.6 µM. For the same compound, the IC50 (HCT-116; read-out: HCT-116 (IC50% μg/ml)) was 0.8 µg/mL, the “selectivity index to the cancer cells” value (HCT-116; broad spectrum, cancer cells) was “greater than 2” and the “shift in fluorescence (p53 antibody)” value ([1]; HCT-116, 1 μM) was 52.7%. The “shift in fluorescence (p53 antibody)” value ([1]; HCT-116, 2 μM) was 60.1% and the “cell population positive for p53” value ([1]; colon cancer cells, 2 μM, 24 hours) was “significant increase”.
